Common to all, as to type: cell-based
In one experiment the target is T1, human TLR7 (Homo sapiens, UniProt Q9NYK1).
T1 construct: host or cells: HEK-Blue cells
T1 sequence (Q9NYK1 27-1049): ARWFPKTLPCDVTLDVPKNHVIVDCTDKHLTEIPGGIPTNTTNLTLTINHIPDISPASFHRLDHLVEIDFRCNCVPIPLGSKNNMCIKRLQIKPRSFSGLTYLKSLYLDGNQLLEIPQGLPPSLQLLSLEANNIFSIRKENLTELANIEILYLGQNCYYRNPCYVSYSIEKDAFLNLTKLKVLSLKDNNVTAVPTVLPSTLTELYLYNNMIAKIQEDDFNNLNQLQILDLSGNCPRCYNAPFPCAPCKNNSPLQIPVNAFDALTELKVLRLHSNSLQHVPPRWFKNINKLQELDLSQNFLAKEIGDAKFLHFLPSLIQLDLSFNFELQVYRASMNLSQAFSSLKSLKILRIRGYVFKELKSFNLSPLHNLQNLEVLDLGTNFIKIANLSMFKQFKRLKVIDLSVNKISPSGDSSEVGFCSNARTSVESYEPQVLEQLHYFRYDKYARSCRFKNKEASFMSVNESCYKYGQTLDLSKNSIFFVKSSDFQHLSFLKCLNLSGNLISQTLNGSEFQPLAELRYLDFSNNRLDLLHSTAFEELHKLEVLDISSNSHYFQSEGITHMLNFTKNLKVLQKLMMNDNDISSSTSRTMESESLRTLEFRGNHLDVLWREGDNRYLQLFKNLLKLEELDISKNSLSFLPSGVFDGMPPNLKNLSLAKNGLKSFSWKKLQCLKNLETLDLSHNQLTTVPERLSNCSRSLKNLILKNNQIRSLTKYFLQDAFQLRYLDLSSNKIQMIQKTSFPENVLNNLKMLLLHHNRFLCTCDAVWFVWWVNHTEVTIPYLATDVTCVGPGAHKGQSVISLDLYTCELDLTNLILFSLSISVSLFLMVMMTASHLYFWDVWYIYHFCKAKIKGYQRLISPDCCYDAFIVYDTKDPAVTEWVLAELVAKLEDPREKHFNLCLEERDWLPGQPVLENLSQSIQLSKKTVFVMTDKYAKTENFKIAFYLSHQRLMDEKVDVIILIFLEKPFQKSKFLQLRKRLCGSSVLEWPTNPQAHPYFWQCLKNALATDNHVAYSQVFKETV
Nature of the experiment: TLR7 inhibition reporter assay (HEK-Blue SEAP reporter, gardiquimod stimulation). The settings on record: HEK-Blue cells overexpressing human TLR7, SEAP reporter, gardiquimod 7.5 μM, 22 hour incubation. The essentials:
(§1)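 Screening used HEK-Blue cells overexpressing one human TLR (7, 8 or 9) and an IFN-β minimal promoter–NF-κB/AP-1 SEAP construct. Stimulation lasted 22 h at 37 °C with receptor-specific agonist: gardiquimod, R848 or ODN2006 at 7.5 μM, 15.9 μM and 5 nM.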
In general terms: Reporter assays use an easily measured gene product as a stand-in for the process of interest.

The next experiment deals with T2, human TLR8 (Homo sapiens, UniProt Q9NR97).
T2 construct: host or cells: HEK-Blue cells
T2 sequence (Q9NR97 27-1041): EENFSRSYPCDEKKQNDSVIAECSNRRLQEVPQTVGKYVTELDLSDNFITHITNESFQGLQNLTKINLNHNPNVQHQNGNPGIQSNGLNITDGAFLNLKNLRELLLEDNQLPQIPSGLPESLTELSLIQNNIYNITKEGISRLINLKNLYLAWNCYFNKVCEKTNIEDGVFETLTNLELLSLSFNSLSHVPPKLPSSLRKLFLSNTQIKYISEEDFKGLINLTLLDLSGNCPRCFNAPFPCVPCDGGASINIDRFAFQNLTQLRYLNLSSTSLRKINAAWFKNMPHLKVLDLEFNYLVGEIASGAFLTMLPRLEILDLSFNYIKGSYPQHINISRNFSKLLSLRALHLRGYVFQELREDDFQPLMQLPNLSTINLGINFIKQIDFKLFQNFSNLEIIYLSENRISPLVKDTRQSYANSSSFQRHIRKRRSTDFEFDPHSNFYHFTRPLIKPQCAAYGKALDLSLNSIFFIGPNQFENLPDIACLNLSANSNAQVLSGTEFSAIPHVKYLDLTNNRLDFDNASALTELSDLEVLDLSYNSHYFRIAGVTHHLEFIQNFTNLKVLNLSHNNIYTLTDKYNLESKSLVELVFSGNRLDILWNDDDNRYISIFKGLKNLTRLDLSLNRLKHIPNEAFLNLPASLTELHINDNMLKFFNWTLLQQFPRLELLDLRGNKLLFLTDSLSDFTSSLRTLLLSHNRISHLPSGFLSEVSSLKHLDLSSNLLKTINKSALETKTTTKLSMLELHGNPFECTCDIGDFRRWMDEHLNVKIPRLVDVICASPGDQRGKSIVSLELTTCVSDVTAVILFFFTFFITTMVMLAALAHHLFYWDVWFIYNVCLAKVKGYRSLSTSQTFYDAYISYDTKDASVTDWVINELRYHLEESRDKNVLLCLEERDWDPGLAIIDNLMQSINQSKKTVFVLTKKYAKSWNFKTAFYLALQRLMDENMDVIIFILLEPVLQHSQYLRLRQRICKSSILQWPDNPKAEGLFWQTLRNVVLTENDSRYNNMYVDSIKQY
Nature of the experiment: TLR8 inhibition reporter assay (HEK-Blue SEAP reporter, R848 stimulation). Particulars: HEK-Blue cells overexpressing human TLR8, SEAP reporter, R848 15.9 μM, 22 hour incubation. The essentials: as §1

The next experiment addresses T3, human TLR9 (Homo sapiens, UniProt Q9NR96).
T3 construct: host or cells: HEK-Blue cells
T3 sequence (Q9NR96 26-1032): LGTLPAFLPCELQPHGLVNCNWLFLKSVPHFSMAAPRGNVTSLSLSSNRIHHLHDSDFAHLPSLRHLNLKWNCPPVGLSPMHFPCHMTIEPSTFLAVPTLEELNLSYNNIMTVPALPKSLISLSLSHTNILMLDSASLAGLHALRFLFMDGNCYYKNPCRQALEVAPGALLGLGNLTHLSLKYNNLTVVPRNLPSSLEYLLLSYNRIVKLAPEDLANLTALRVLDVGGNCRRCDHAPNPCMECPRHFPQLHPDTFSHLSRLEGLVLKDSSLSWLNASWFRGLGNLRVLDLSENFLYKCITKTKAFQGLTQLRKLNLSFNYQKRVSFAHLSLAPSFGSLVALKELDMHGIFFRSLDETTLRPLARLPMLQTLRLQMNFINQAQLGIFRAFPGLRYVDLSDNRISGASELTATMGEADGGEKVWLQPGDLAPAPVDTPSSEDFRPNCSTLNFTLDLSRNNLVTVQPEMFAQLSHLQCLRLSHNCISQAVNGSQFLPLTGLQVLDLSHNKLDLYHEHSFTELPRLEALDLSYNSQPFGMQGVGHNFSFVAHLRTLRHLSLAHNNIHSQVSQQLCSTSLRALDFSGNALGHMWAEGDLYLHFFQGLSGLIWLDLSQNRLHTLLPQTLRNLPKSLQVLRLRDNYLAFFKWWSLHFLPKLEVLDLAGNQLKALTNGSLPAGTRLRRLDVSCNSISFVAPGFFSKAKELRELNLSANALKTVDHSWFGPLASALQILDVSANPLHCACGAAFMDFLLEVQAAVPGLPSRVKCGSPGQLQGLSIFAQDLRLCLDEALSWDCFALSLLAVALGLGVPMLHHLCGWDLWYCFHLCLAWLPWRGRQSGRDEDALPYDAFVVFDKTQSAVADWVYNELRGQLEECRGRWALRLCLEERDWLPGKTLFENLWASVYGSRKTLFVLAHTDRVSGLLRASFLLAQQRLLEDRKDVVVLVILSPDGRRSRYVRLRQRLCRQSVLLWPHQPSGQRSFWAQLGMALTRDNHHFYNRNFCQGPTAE
Kind of experiment: TLR9 inhibition reporter assay (HEK-Blue SEAP reporter, ODN2006 stimulation). The settings on record: HEK-Blue cells overexpressing human TLR9, SEAP reporter, ODN2006 5 nM, 22 hour incubation. The essentials: as §1

This is an account of results in patent publication US11447466B2, “Substituted indole compounds useful as inhibitors of TLR7/8/9” (BRISTOL-MYERS SQUIBB COMPANY, priority 2017, dated 2022).

For the compound `CN[C@H](C)C(=O)N1CCC(c2ccc3[nH]c(-c4cc(C)c(=O)n(C)c4)c(C(C)C)c3c2)CC1` [Example 299, 5-(3-isopropyl-5-(1-(methyl-D-alanyl)piperidin-4-yl)-1H-indol-2-yl)-1,3-dimethylpyridin-2(1H)-one], the results for the half-inhibitory concentration (IC50) at human TLR7, on human TLR8 and on human TLR9 were 3.7 nM, 4.3 nM and 504 nM, respectively.
For `CCCN1CCC(c2ccc3[nH]c(-c4cc(-c5cnn(C)c5)c(=O)n(C)c4)c(C(C)C)c3c2)CC1` [Example 334, 5-(3-isopropyl-5-(1-propylpiperidin-4-yl)-1H-indol-2-yl)-1-methyl-3-(1-methyl-1H-pyrazol-4-yl) pyridin-2(1H)-one], in that order: 8.6 nM, 0.8 nM and 487 nM.
Taken in the same sequence, the figures for `Cc1c(-c2[nH]c3ccc(C4CCN(C5COC5)CC4)cc3c2C(C)C)cn(C)c(=O)c1C` [Example 207, 5-(3-isopropyl-5-(1-(oxetan-3-yl)piperidin-4-yl)-1H-indol-2-yl)-1,3,4-trimethylpyridin-2(1H)-one] were 20.8 nM, 11.7 nM and 46800 nM.
Regarding `CNC(=O)CN1CCC(c2ccc3[nH]c(-c4nn(C)c(=O)c(C)c4C)c(C(C)C)c3c2)CC1` [Example 131, 2-(4-(3-isopropyl-2-(1,4,5-trimethyl-6-oxo-1,6-dihydropyridazin-3-yl)-1H-indol-5-yl)piperidin-1-yl)-N-methylacetamide], the half-inhibitory concentration (IC50) worked out at 245 nM on human TLR7, 33.4 nM on human TLR8 and 16200 nM on human TLR9.
For `Cc1cc(-c2[nH]c3ccc(C4CCN(C5CCOC5)CC4)cc3c2C(C)C)cn(C)c1=O` (stereo not drawn) [Example 180, 5-(3-isopropyl-5-(1-(tetrahydrofuran-3-yl)piperidin-4-yl)-1H-indol-2-yl)-1,3-dimethylpyridin-2(1H)-one], in that order: 7 nM, 8.2 nM and 5750 nM.
For `Cc1cc(-c2[nH]c3ccc(C4CCNCC4)cc3c2C(C)C)cn(C)c1=O` [Example 2, 5-(3-isopropyl-5-(piperidin-4-yl)-1H-indol-2-yl)-1,3-dimethylpyridin-2(1H)-one], in that order: 1.6 nM, 5.1 nM and 4340 nM.
Taken in the same sequence, the figures for `Cc1cc(-c2[nH]c3ccc(C4CCN([C@H]5CCOC[C@@H]5O)CC4)cc3c2C(C)C)cn(C)c1=O` [Example 313, 5-(5-(1-((3R,4S)-3-hydroxytetrahydro-2H-pyran-4-yl)piperidin-4-yl)-3-isopropyl-1H-indol-2-yl)-1,3-dimethylpyridin-2(1H)-one] were 4.7 nM, 3.1 nM and 8040 nM.
In the case of `CCn1cc(-c2[nH]c3ccc(C4CCN(CC(=O)N(C)C)CC4)cc3c2C(C)C)c(C)c(C)c1=O` [Example 136, 2-(4-(2-(1-ethyl-4,5-dimethyl-6-oxo-1,6-dihydropyridin-3-yl)-3-isopropyl-1H-indol-5-yl)piperidin-1-yl)-N,N-dimethylacetamide], the IC50 against human TLR7 came to 12 nM; at human TLR8, 13.6 nM; against human TLR9 it was 1950 nM.
Taken in the same sequence, the figures for `Cc1cc(-c2[nH]c3ccc(C4CCN(CCN5C(=O)CCC5=O)CC4)cc3c2C(C)C)cn(C)c1=O` [Example 84, 1-(2-(4-(2-(1,5-dimethyl-6-oxo-1,6-dihydropyridin-3-yl)-3-isopropyl-1H-indol-5-yl)piperidin-1-yl)ethyl)pyrrolidine-2,5-dione] were 44.3 nM, 73.6 nM and at least 50000 nM.
As to `COc1cc(-c2[nH]c3ccc(C4CCN(CC(=O)N(C)C)CC4)cc3c2C(C)C)c(C)n(C)c1=O` [Example 143, 2-(4-(3-isopropyl-2-(5-methoxy-1,2-dimethyl-6-oxo-1,6-dihydropyridin-3-yl)-1H-indol-5-yl)piperidin-1-yl)-N,N-dimethylacetamide], the IC50 against human TLR7 turned out to be 413 nM; against human TLR8 it was 99.7 nM; against human TLR9 it was 2720 nM.
`Cc1cc(-c2[nH]c3ccc(C4CCN(C(=O)CN(C)C)CC4)cc3c2C(C)C)cn(C)c1=O` [Example 271, 5-(5-(1-(2-(dimethylamino)acetyl)piperidin-4-yl)-3-isopropyl-1H-indol-2-yl)-1,3-dimethylpyridin-2(1H)-one]: the figures for the IC50 at human TLR7, at human TLR8 and against human TLR9 were 5.3 nM, 8.3 nM and 13500 nM, respectively.
As to `Cc1cc(-c2[nH]c3ccc(C4CCN(CC5(O)CCOCC5)CC4)cc3c2C(C)C)c(C)n(C)c1=O` [Example 320, 5-(5-(1-((4-hydroxytetrahydro-2H-pyran-4-yl)methyl)piperidin-4-yl)-3-isopropyl-1H-indol-2-yl)-1,3,6-trimethylpyridin-2(1H)-one], the results for the IC50 against human TLR7, against human TLR8 and at human TLR9 were 14.2 nM, 1.7 nM and 2310 nM, respectively.

In general, IC50 refers to the point on the concentration scale where inhibition reaches its midpoint. High values mean weaker potency in that assay, low ones greater potency in that assay.
